Reference: the Kinase Knowledgebase extract (Sharma et al. 2016)
In brackets after ≈: the same amount, converted by molar mass.

How the values were obtained:
EGFR (human) [1] = target: EGFR (human) (UniProt P00533); settings: mda-mb-435
EGFR (human) [2] = target: EGFR (human) (UniProt P00533); settings: sw 620
EGFR (human) [3] = target: EGFR (human) (UniProt P00533); settings: a431
EGFR (human) [4] = target: EGFR (human) (UniProt P00533); settings: sk-br-3
EGFR (human) [5] = target: EGFR (human) (UniProt P00533); settings: 3t3
EGFR (human) [6] = target: EGFR (human) (UniProt P00533); settings: her2/3t3

Chain of EGFR (human) (P00533 whole entry, looked up): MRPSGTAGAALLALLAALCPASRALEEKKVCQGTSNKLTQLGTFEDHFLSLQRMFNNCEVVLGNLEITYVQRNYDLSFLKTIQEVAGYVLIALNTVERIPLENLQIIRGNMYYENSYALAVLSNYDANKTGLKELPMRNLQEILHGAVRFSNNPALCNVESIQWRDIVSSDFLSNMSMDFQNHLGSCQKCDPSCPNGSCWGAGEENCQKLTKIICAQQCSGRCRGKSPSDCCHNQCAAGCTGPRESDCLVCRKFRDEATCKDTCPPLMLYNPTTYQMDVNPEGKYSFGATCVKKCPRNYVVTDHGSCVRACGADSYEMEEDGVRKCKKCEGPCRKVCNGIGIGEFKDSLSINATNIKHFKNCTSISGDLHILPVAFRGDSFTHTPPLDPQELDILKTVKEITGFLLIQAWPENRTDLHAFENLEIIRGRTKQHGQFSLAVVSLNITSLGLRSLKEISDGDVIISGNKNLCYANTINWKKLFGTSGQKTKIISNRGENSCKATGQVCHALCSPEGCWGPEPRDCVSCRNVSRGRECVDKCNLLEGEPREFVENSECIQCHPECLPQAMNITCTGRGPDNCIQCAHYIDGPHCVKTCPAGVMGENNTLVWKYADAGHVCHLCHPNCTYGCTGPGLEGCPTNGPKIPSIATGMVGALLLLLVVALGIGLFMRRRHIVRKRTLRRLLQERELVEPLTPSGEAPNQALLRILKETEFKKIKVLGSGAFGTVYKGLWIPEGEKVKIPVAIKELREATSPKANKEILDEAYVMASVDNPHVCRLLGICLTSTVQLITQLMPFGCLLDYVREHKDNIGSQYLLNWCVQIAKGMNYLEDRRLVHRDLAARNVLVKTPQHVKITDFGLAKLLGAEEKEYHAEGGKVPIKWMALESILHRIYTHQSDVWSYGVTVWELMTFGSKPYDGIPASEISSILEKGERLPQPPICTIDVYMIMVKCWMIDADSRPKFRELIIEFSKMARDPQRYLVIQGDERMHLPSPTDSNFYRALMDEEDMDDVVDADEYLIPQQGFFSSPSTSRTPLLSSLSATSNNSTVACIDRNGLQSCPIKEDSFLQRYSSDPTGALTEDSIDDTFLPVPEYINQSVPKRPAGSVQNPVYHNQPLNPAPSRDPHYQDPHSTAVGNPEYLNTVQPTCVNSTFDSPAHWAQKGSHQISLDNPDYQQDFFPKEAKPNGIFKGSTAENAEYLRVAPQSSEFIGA

IC50 (EGFR (human) [1])	IC50 (EGFR (human) [2])	IC50 (EGFR (human) [3])	IC50 (EGFR (human) [4])	IC50 (EGFR (human) [5])	IC50 (EGFR (human) [6])	Structure (SMILES)
3.5 µg/mL (≈ 7.3 µM)	0.4 µg/mL (≈ 0.834 µM)	0.9 µg/mL (≈ 1.88 µM)	0.8 µg/mL (≈ 1.67 µM)	–	–	COCCOCC#CC(=O)Nc1ccc2ncc(C#N)c(Nc3cccc(Br)c3)c2c1
1.83 µg/mL (≈ 3.49 µM)	1.73 µg/mL (≈ 3.3 µM)	0.232 µg/mL (≈ 0.443 µM)	–	2.87 µg/mL (≈ 5.48 µM)	0.375 µg/mL (≈ 0.716 µM)	COc1cc2ncc(C#N)c(Nc3ccc(F)c(Cl)c3)c2cc1NC(=O)/C=C\CN1CCCC(CO)C1 (stereo not given)
0.2 µg/mL (≈ 0.373 µM)	0.5 µg/mL (≈ 0.932 µM)	0.1 µg/mL (≈ 0.186 µM)	–	–	–	COCCN(CC#CC(=O)Nc1ccc2ncc(C#N)c(Nc3cccc(Br)c3)c2c1)CCOC
3.19 µg/mL (≈ 6.91 µM)	> 5 µg/mL	0.369 µg/mL (≈ 0.798 µM)	1.5 µg/mL (≈ 3.23 µM)	–	–	CN1CCC=C(C(=O)Nc2ccc3ncc(C#N)c(Nc4cccc(Br)c4)c3c2)C1
0.1 µg/mL (≈ 0.211 µM)	0.1 µg/mL (≈ 0.211 µM)	–	–	–	–	C=CCN(C)CC#CC(=O)Nc1ccc2ncc(C#N)c(Nc3cccc(Br)c3)c2c1
0.284 µg/mL (≈ 0.577 µM)	0.239 µg/mL (≈ 0.485 µM)	0.05 µg/mL (≈ 0.102 µM)	–	–	–	COCCN(C)CC#CC(=O)Nc1ccc2ncc(C#N)c(Nc3cccc(Br)c3)c2c1
2.07 µg/mL (≈ 4.16 µM)	1.53 µg/mL (≈ 3.07 µM)	0.245 µg/mL (≈ 0.492 µM)	0.107 µg/mL (≈ 0.215 µM)	2.04 µg/mL (≈ 4.1 µM)	0.192 µg/mL (≈ 0.386 µM)	COCCN(C)C/C=C\C(=O)Nc1cc2c(Nc3ccc(F)c(Cl)c3)c(C#N)cnc2cc1OC
1.74 µg/mL (≈ 3.32 µM)	1.24 µg/mL (≈ 2.37 µM)	0.234 µg/mL (≈ 0.447 µM)	0.148 µg/mL (≈ 0.282 µM)	2.1 µg/mL (≈ 4.01 µM)	0.329 µg/mL (≈ 0.628 µM)	COC[C@@H]1CCCN1C/C=C/C(=O)Nc1cc2c(Nc3ccc(F)c(Cl)c3)c(C#N)cnc2cc1OC
3.32 µg/mL (≈ 6.01 µM)	2.51 µg/mL (≈ 4.55 µM)	0.283 µg/mL (≈ 0.513 µM)	0.188 µg/mL (≈ 0.341 µM)	2.79 µg/mL (≈ 5.05 µM)	0.35 µg/mL (≈ 0.634 µM)	COc1cc2ncc(C#N)c(Nc3ccc(F)c(Cl)c3)c2cc1NC(=O)/C=C/CN1CCC2(CC1)OCCO2
0.3 µg/mL (≈ 0.579 µM)	0.1 µg/mL (≈ 0.193 µM)	–	–	–	–	COC[C@@H]1CCCN1CC#CC(=O)Nc1ccc2ncc(C#N)c(Nc3cccc(Br)c3)c2c1
27.6 µg/mL (≈ 59.6 µM)	18 µg/mL (≈ 38.8 µM)	4.91 µg/mL (≈ 10.6 µM)	1.74 µg/mL (≈ 3.76 µM)	–	–	CCOc1c(Nc2ccc3ncc(C#N)c(Nc4cccc(Br)c4)c3c2)c(=O)c1=O
